# Experiments:
# Assay type in all cases: physicochemical
# [1] = Evaluation of light resistance of color filters, xenon tester; conditions: color filter containing the compound; xenon tester 50 hours, 0.39 W/m^2 at 340 nm, 40° C., relative humidity 60%
# Description: Ink (11) of the present invention was prepared by mixing 12 parts of Compound (1) as the water-insoluble coloring compound of the present invention and 120 parts of cyclohexanone and dispersing the mixture with an attritor (manufactured by Mitsui Mining Co., Ltd.) for 1 hour.
# Twenty-two parts of Ink (11) was slowly added to a solution of 6.7 parts of an acrylic copolymer composition (weight average molecular weight Mw: 10000) composed of, as a monomer ratio, 40% by mass of n-butyl methacrylate, 30% by mass of acrylic acid, and 30% by mass of hydroxyethyl methacrylate, 1.3 parts of dipentaerythritol pentaacrylate, and 0.4 parts of 2-benzyl-2-dimethylamino-1-(4-morpholinophenyl)-butanone (photopolymerization initiator) in 96 parts of cyclohexanone, followed by stirring at room temperature for 3 hours. The reaction solution was filtered through a filter of 1.5 μm pore size to yield color filter yellow resist composition (1) of the present invention.
# Color filter yellow resist composition (1) was spin-coated on a glass substrate and was then dried at 90° C. for 3 min, and the entire surface was then exposed to light and post-cured at 180° C. to produce color filter (1).
# (§1) Each of the resulting color filters and the thermal transfer recording sheets was charged in a xenon tester (Atlas Ci4000, manufactured by Suga Test Instruments Co., Ltd.) and was subjected to exposure conditions (irradiance: 0.39 W/m^2 at 340 nm, temperature: 40° C., relative humidity: 60%) for 50 hours. The reflection densities of printed matters were measured before and after the test. The color difference (ΔE) was calculated from the initial chromaticity values a0*, b0*, L0* and the chromaticity values a*, b*, L* after the exposure by the following expression: ΔE=√{square root over ((a*−a0*)^2+(b*−b0*)^2+(L*−L0*)^2)} [Math. 2] The evaluation criteria are as follows: • A: ΔE<3.50 • B: 3.50≦ΔE<5.00 • C: 5.00≦ΔE
# [2] = Light resistance evaluation of compound: ink image samples on paper, xenon tester; design: key to Light resistance ΔE (color difference): ΔE = Euclidean distance of L*a*b* before vs after exposure; conditions: ink image sample on paper; xenon tester 10 hours, 0.39 W/m^2 at 340 nm, 40° C., relative humidity 60%
# Description: Ink (1) of the present invention was prepared by mixing 5 parts of Compound (1) as the water-insoluble coloring compound of the present invention, 350 parts of toluene, 350 parts of ethyl acetate, and 300 parts of 2-butanone.
# Inks (1), (2), (4), (8), (13), (15), (23), (28), (29), and (30) and Comparative Inks (1) and (2) were each applied onto paper for contrast ratio measurement by bar coating (Bar No. 10) and were air-dried overnight to produce image samples. Chromaticity values (L*, a*, b*) in the L*a*b* color system of each image sample were measured with a reflection densitometer SpectroLino (manufactured by Gretag Macbeth AG).
# as §1, with “the image samples produced in” for “the resulting color filters and”, “the chromaticity measurement” for “the thermal transfer recording sheets”, “for 10” for “for 50”, “b*, L” for “b*, L*”, “[Math. 1]” for “[Math. 2]”
# [3] = Evaluation of light resistance of thermal transfer recording sheets, xenon tester; conditions: thermal transfer recording sheet containing the compound; xenon tester 50 hours, 0.39 W/m^2 at 340 nm, 40° C., relative humidity 60%
# Description: Ink (14) of the present invention was prepared by gradually adding 5 parts of a polyvinyl butyral resin (Denka 3000-K, manufactured by Denki Kagaku Kogyo K.K.) to a solution of 13.5 parts of Compound (4), as the water-insoluble coloring compound of the present invention, in a mixture of 45 parts of methyl ethyl ketone and 45 parts of toluene with stirring.
# Ink (14) was applied onto a polyethylene terephthalate film (Lumirror, manufactured by Toray Industries, Inc.) having a thickness of 4.5 μm so as to have a dried thickness of 1 μm and was dried to produce thermal transfer recording sheet (4).
# as §1
Light resistance ΔE (color difference) [1],"Light resistance ΔE, evaluation grade [1]",Light resistance ΔE (color difference) [2],"Light resistance ΔE, evaluation grade [2]",Light resistance ΔE (color difference) [3],"Light resistance ΔE, evaluation grade [3]",Structure (SMILES)
2.99,A (A: ΔE<3.50),3.64,B (B: 3.50≦ΔE<5.00),–,–,CCCCC(CC)CN(CC(CC)CCCC)C(=O)c1ccccc1/N=N/c1c(C)c(C#N)c(=O)n(N)c1O (stereo not drawn) [Compound (1)]
–,–,3.98,B (B: 3.50≦ΔE<5.00),3.37,A (A: ΔE<3.50),CCCCC(CC)CN(CC(CC)CCCC)C(=O)c1cccc(/N=N/c2c(C)c(C#N)c(=O)n(N(C)C)c2O)c1 (stereo not drawn) [Compound (13)]
–,–,3.77,B (B: 3.50≦ΔE<5.00),2.56,A (A: ΔE<3.50),CCCCC(CC)CN(CC(CC)CCCC)S(=O)(=O)c1ccc(/N=N/c2c(C)c(C#N)c(=O)n(N(C)C(=O)C(C)(C)C)c2O)cc1 (stereo not drawn) [Compound (29)]
–,–,1.70,A (A: ΔE<3.50),2.76,A (A: ΔE<3.50),CCCCC(CC)CN(CC(CC)CCCC)C(=O)c1cccc(/N=N/c2c(C)c(C#N)c(=O)n(N)c2O)c1 (stereo not drawn) [Compound (4)]
–,–,2.37,A (A: ΔE<3.50),2.54,A (A: ΔE<3.50),CCCCC(CC)CN(CC(CC)CCCC)S(=O)(=O)c1ccc(/N=N/c2c(C)c(C#N)c(=O)n(N)c2O)cc1 (stereo not drawn) [Compound (23)]
–,–,2.44,A (A: ΔE<3.50),4.89,B (B: 3.50≦ΔE<5.00),CCCCC(CC)CN(CC(CC)CCCC)C(=O)c1ccc(/N=N/c2c(C)c(C#N)c(=O)n(N(CCCC)CCCC)c2O)cc1 (stereo not drawn) [Compound (30)]
2.68,A (A: ΔE<3.50),2.81,A (A: ΔE<3.50),–,–,CCCCC(CC)CN(CC(CC)CCCC)C(=O)c1ccc(/N=N/c2c(-c3ccccc3)c(C#N)c(=O)n(NC(=O)c3ccccc3)c2O)cc1 (stereo not drawn) [Compound (8)]
4.21,B (B: 3.50≦ΔE<5.00),4.32,B (B: 3.50≦ΔE<5.00),–,–,CCCCC(CC)CN(CC(CC)CCCC)C(=O)c1cccc(/N=N/c2c(C)c(C#N)c(=O)n(NC(=O)C(CC)CCCC)c2O)c1 (stereo not drawn) [Compound (15)]
–,–,1.64,A (A: ΔE<3.50),2.32,A (A: ΔE<3.50),CCCCC(CC)CN(CC(CC)CCCC)C(=O)c1ccc(/N=N/c2c(C)c(C#N)c(=O)n(N3CCCCC3)c2O)cc1 (stereo not drawn) [Compound (28)]
12.8,C (C: 5.00≦ΔE),10.6,C (C: 5.00≦ΔE),15.1,C (C: 5.00≦ΔE),"Cc1c(/N=N/c2ccccc2)c(O)n(N)c(=O)c1C#N [Comparative Compound (1), reference compound]"
